Measurements as given in patent US20040014702A1, “Mammalian prostaglandin H synthase-2” (priority 1992, published 2004).

Tests used:
[1] = system: PGHS-2; conditions: cytokine-treated astrocytes; cited from earlier work
[2] = system: colon polyp; conditions: patients with familial polyposis; cited from earlier work
[3] = target: T1, griPGHS (Mus musculus, UniProt Q05769); conditions: E9 cells
T1 sequence (Q05769 18-604): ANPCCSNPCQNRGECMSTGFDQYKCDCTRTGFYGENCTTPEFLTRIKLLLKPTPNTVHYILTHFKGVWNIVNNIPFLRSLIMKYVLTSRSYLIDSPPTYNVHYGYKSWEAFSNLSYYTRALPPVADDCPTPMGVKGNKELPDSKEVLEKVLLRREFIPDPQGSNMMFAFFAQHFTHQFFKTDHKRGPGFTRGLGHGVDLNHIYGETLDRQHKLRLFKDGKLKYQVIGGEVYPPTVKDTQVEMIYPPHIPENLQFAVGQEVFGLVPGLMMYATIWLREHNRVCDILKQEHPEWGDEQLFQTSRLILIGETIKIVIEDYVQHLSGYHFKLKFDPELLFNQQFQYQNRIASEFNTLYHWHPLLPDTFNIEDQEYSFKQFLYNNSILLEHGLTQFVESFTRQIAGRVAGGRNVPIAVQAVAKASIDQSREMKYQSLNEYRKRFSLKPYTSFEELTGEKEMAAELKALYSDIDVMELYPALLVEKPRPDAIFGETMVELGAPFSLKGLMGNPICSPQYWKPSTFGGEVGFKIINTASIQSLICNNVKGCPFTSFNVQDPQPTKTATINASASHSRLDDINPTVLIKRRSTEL
Experimental: (§1) Cyclooxygenase activity was determined in the cultures by addition of media containing exogenous arachidonic acid substrate (30 AM for 15 min. at 37° C.) followed by conversion of the prostaglandin E2 product to a methyl oximate form. This derivative was then quantitated by radioimmunoassay (kit from Amersham Corp.).
Prostaglandin assays were carried out as described above. For drug studies, cells were exposed to various concentrations of drugs for 30 min in serum-free DMEM and arachidonic acid was added directly from a 25×stock in DMEM. Supernatants were harvested 15 min later. Controls consisted of no drugs and wells treated with maximal concentrations of drug vehicles (1% methanol or ethanol).
Cells were placed in serum-free medium with the drugs for 30 min prior to a 15 min exposure to arachidonic acid (added directly to the media). Synthesized PGE2 was then quantitated from the supernatants by a standard radio immunoassay.

[4] = system: colon tumor; conditions: several clinical trials; cited from earlier work
[5] = target: T2, human PGHS-2 (Homo sapiens, UniProt P35354); conditions: cell lines incl. H17A5 (PGHS-1) and 4B4 (PGHS-2), 30 min drug, 15 min arachidonic acid
T2 sequence (P35354 18-604): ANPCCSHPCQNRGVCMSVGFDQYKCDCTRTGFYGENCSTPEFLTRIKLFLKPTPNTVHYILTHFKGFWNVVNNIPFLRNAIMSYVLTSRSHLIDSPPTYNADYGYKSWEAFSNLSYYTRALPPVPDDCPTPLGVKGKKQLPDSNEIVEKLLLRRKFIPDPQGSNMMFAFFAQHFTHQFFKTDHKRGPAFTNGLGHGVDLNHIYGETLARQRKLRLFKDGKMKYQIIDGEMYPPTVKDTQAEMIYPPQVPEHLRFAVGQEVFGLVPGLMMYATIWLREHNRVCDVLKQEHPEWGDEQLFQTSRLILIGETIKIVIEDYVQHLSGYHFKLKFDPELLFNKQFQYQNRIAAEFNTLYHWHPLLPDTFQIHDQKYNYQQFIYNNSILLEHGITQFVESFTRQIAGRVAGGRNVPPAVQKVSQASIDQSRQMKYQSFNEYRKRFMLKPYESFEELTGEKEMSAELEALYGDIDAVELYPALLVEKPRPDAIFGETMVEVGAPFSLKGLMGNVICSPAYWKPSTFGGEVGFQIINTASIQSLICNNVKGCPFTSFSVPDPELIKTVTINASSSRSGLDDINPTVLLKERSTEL
Experimental: PGHS-1 and PGHS-2 cell lines (including 4B4 and H17A5) were exposed to various concentrations of NSAID for 30 min in serum-free DMEM. Arachidonic acid was added directly from a 25×stock in DMEM and supernatants were harvested 15 min later. Controls consisted of no drug treatment and cells treated with the maximal concentrations of drug vehicles (1% methanol or ethanol). […] Cyclooxygenase activity was determined as described herein above.

[6] = system: 2.8-kb PGHS mRNA; test: Northern blot of 2.8-kb PGHS (PGHS-1) mRNA in human monocytes; assay type: cell-based; conditions: IL-1β, dexamethasone or cycloheximide treatment
Experimental: (§2) Poly-A enriched RNAs (2.5 μg) from C127 cells were fractionated by formaldehyde-agarose gel electrophoresis and transferred to a membrane (Duralon, Stratagene). Hybridization was carried out as previously described by O'Banion et al., 1991, J. Virol., 65:3481-3488, using the 5′ 1.2 kb EcoRI fragment of the 4.1 kb cDNA labeled with ^32P by random priming as disclosed by Feinberg et al., 1983, Anal. Biochem., 132:6-13. The membrane was later rehybridized with a similarly labeled portion (1.6 kb 5′ end) of the 2.8 kb ovine PGHS cDNA (Oxford Biomedical Research, Inc.), and an end-labeled 40-mer complimentary to β-tubulin (Oncor). RNA molecular weight markers (Life Technologies) were visualized by ethidium bromide staining. A similar analysis was performed on total RNA (5 μg/lane) isolated from human monocytes by the guanidinium-acid-phenol extraction method of Chomczynski et al., 1987, Anal. Biochem., 162:156-159.
Adherent human monocytes isolated from healthy donors as described by Roberts et al., 1978, J. Immunol, 121:1052-1058, were suspended in M199 medium without serum at 1×10^6 cells/ml. one ml aliquots in 5 ml polypropylene tubes were incubated with loosened caps in 5% CO2 at 37° C. with occasional shaking. […]

[7] = system: C127 mouse fibroblasts; test: Inhibition of protein synthesis in C127 cell cultures; assay type: cell-based; conditions: C127, 0.25 h, within 15 min
Experimental: Exponentially growing, subconfluent (60-80%) cell monolayers (35-mm plates) were labeled in Dulbecco's modified Eagle's medium without methionine (Life Technologies) plus 200 μCi/ml Tran^35S-label (>1,000 Ci/mmol; ICN) for 15 or 30 min. In some cases, fresh fetal calf serum (10%) was present during the labeling period. Monolayers were rinsed twice with ice-cold Dulbecco's modified Eagle's medium (DMEM) with methionine prior to lysis in 200 μl of A8 buffer (9.5 M urea, 2% (w/v) Nonidet P-40, 2% (w/v) ampholines (LKB, 1.6% pH range 5-8, 04.% pH range 3.5-10), 5% (w/v) 2-mercaptoethanol). Incorporation of label into proteins was determined by trichloroacetic acid precipitation. Dexamethasone (Sigma) was freshly prepared in phosphate-buffered saline (PBS) (stock concentrations based on molar extinction coefficient of 1.5×10^4 liters/mol/cm at 250 nn) and added to 1 μM. The calcium ionophore A23187 (Calbiochem) was used at a concentration of 5 μM from a 2.5 mM stock in ethanol. Cycloheximide (Sigma) was used at a concentration of 25 μM from a 100× stock in water. This level inhibited protein synthesis by >97% within 15 min. Control cultures received appropriate amounts of solvents.

[8] = system: griPGHS mRNA (4.8-kb mRNA); test: Northern blot of griPGHS (PGHS-2) mRNA in human monocytes; assay type: cell-based; conditions: for increased levels of griPGHS mRNA relative to control: IL-1β 10 half-maximal units
Experimental: as §2
(§3) Adherent human monocytes isolated from healthy donors as described by Roberts et al., 1978, J. Immunol, 121:1052-1058, were suspended in M199 medium without serum at 1×10^6 cells/ml. one ml aliquots in 5 ml polypropylene tubes were incubated with loosened caps in 5% CO2 at 37° C. with occasional shaking. To derive the autoradiograph shown in FIG. 3A, monocytes were incubated for 4 hr in the presence or absence of dexamethasone (1 AM; Sigma) prior to total RNA isolation by the procedure of P. Chomczynski et al., cited above. Five μg RNA was subjected to Northern blot analysis as described by O'Banion et al., 1991, J. Biol. Chem., 34:23261-23267 with the indicated probes labeled by random priming (kit from Boehringer-Mannheim) to a specific activity >1×10^9 cpm/μg. To derive the autoradiograph shown in FIG. 3B, monocytes were treated with dexamethasone (1 μM), […] (10 half-maximal units, Collaborative Research), or both for the indicated times prior to RNA isolation. Cycloheximide (25 μM; Sigma) was added to one set of incubations 15 min prior to the addition of cytokine or hormone.

[9] = system: human monocytes; test: Accumulated PGE2 in supernatant of human monocytes; assay type: cell-based; conditions: after 4 hr of incubation, dexamethasone 1 μM; without 122.5
Experimental: as §1
as §3, with “Cycloheximide (25 μM; Sigma) was added to one set of incubations 15 min prior to the addition of cytokine or hormone.” left out

[10] = system: lung disease of cystic fibrosis; conditions: high-dose, cystic fibrosis patient population; cited from earlier work

Molecule: CS(=O)(=O)Nc1ccc([N+](=O)[O-])cc1OC1CCCCC1 [NS-398]
- induced cyclooxygenase activity [1]: blocked

Molecule: CC1=C(CC(=O)O)c2cc(F)ccc2/C1=C\c1ccc([S+](C)[O-])cc1 (stereo not drawn) [Sulindac]
- effect on colon polyps [2]: colon polyp regression

Molecule: CC(=O)Nc1ccc(O)cc1 [acetaminophen]
- potency against griPGHS activity (rank among four NSAIDs) ([3]; 0.2 μM-2 mM, 30 min drug then 15 min arachidonic acid): the least
- concentration not sufficient for full inhibition of griPGHS activity ([3]; highest dose tested): > 2 mM

Molecule: CC(=O)Oc1ccccc1C(=O)O [aspirin]
- association of use with colon tumor outcome [4]: decreased colon tumor growth and death
- levels of drug required for inhibition, cells expressing PGHS-1 versus PGHS-2 [5]: different

Molecule: C[C@@H]1C[C@@H]([C@H](O)CC2CC(=O)NC(=O)C2)C(=O)[C@@H](C)C1 [cycloheximide]
- levels of the 2.8-kb mRNA relative to β-tubulin [6]: not significantly altered
- inhibition at 25 µM [7]: > 97%
- effect on 4.8-kb griPGHS mRNA ([8]; cycloheximide 25 μM added 15 min before cytokine or hormone): superinduction

Molecule: C[C@@H]1C[C@H]2[C@@H]3CCC4=CC(=O)C=C[C@]4(C)[C@@]3(F)[C@@H](O)C[C@]2(C)[C@@]1(O)C(=O)CO [dexamethasone]
- level of accumulated PGE2 in the supernatant [9]: 52.5 pg per 10^4 monocytes
- griPGHS mRNA levels down-regulated, normalized to β-tubulin ([8]; dexamethasone 1 μM, 4 hr, human monocytes): 5 fold

Molecule: CC(C)Cc1ccc(C(C)C(=O)O)cc1 (stereo not drawn) [ibuprofen]
- effect on lung disease [10]: slows the progression of lung disease

Molecule: IL-1β: proinflammatory cytokine, known mediator of inflammation (Collaborative Research)
- levels of the 2.8-kb mRNA relative to β-tubulin [6]: not significantly altered
- increased levels of griPGHS mRNA relative to control ([8]; 4 hr, human monocytes): 2.5 fold
- increased levels of griPGHS mRNA relative to control ([8]; 12 hr, human monocytes): 14 fold
